The results in this text go back to US20260272900A1 (Bayer Aktiengesellschaft, priority 2024, published 2026).

This assay relates to patients with heart failure and left ventricular ejection fraction ≥40% (HFmrEF/HFpEF). In kind it is in vivo. The note with it: bilirubin Tertile 1 ≤0.4 mg/dL; N = 957.

`CCOc1ncc(C)c2c1[C@H](c1ccc(C#N)cc1OC)C(C(N)=O)=C(C)N2` [finerenone, (4S)-4-(4-cyano-2-methoxyphenyl)-5-ethoxy-2,8-dimethyl-1,4-dihydro-1,6-naphthyridine-3-carboxamide]: the “Total worsening HF events, event rate” value was determined as 12.4 per 100 PY.
